Test results from ChEMBL document CHEMBL4402552, “The Discovery of 7-Methyl-2-[(7-methyl[1,2,4]triazolo[1,5-a]pyridin-6-yl)amino]-9-(tetrahydro-2H-pyran-4-yl)-7,9-dihydro-8H-purin-8-one (AZD7648), a Potent and Selective DNA-Dependent Protein Kinase (DNA-PK) Inhibitor” (J Med Chem, 2020).
In brackets after ≈: the same amount, converted by molar mass.

How the values were obtained:
[1] = Drug level in mouse hepatocytes treated with 9-(trans-4-Hydroxycyclohexyl)-2-[(4-methoxy-2-methylphenyl)amino]-7-methyl-7,9-dihydro-8H-purin-8-one assessed as compound formation at 5 uM measured after 60 mins by UV-MS analysis; assay type: ADME, cell-based, Hepatocyte; settings: 1 h
[2] = Drug level in rat hepatocytes treated with 9-(trans-4-Hydroxycyclohexyl)-2-[(4-methoxy-2-methylphenyl)amino]-7-methyl-7,9-dihydro-8H-purin-8-one assessed as compound formation at 5 uM measured after 60 mins by UV-MS analysis; assay type: ADME, cell-based, Hepatocyte; settings: 1 h
[3] = physchem; settings: buffer, pH 7.4
[4] = Apparent permeability across apical to basolateral side in human Caco2 cells in absence of efflux inhibitor by ABBA assay; assay type: ADME, cell-based; settings: Caco-2
[5] = Intrinsic clearance in human microsomes; assay type: ADME, Microsome
[6] = Dissociation constant, pKa of the compound; assay type: physicochemical
[7] = Drug metabolism in rat hepatocytes assessed as dealkylation and oxidation by measuring iminoquinone formation at 5 uM measured after 60 mins by UV-MS analysis; assay type: ADME, cell-based, Hepatocyte; settings: 1 h
[8] = Drug metabolism in human hepatocytes assessed as dealkylation at 5 uM measured after 60 mins by UV-MS analysis; assay type: ADME, cell-based, Hepatocyte; settings: 1 h
[9] = Drug metabolism in rat hepatocytes assessed as dealkylation at 5 uM measured after 60 mins by UV-MS analysis; assay type: ADME, cell-based, Hepatocyte; settings: 1 h
[10] = Drug metabolism in mouse hepatocytes assessed as dealkylation and oxidation by measuring iminoquinone formation at 5 uM measured after 60 mins by UV-MS analysis; assay type: ADME, cell-based, Hepatocyte; settings: 1 h
[11] = Drug metabolism in mouse hepatocytes assessed as dealkylation at 5 uM measured after 60 mins by UV-MS analysis; assay type: ADME, cell-based, Hepatocyte; settings: 1 h
[12] = Volume of distribution at steady state in Han Wistar rat at 2 mg/kg, iv or 5 mg/kg, po; assay type: ADME, organism-based; settings: in vivo, read-out: Vdss
[13] = Volume of distribution at steady state in Beagle dog at 1 mg/kg, iv or 2 mg/kg, po; assay type: ADME, organism-based, Canis lupus familiaris; settings: in vivo, read-out: Vdss
[14] = Solubility of the compound in simulated gastric fluid using crystalline sample; assay type: physicochemical
[15] = Time at which plasma concentration stays above in vitro IC50 for inhibition of DNA-PK in human A549 cells in SCID mouse at 100 mg/kg, po qd; assay type: organism-based; settings: in vivo
[16] = Solubility of the compound in fasted state simulated intestinal fluid using crystalline sample; assay type: physicochemical
[17] = Oral bioavailability in Beagle dog at 2 mg/kg; assay type: ADME, organism-based, Canis lupus familiaris; settings: in vivo
[18] = Oral bioavailability in Han Wistar rat at 5 mg/kg; assay type: ADME, organism-based; settings: in vivo
[19] = Cmax in ATM knock out human FADU cells xenografted SCID mouse at 100 mg/kg, po qd measured after 2 hrs; assay type: ADME, organism-based; settings: in vivo, read-out: T>IC50
[20] = Free plasma concentration in SCID mouse at 100 mg/kg, po qd measured after 10 hrs; assay type: ADME, organism-based; settings: in vivo

SMILES | logD [3] | Papp A→B [4] [×10⁻⁶ cm/s] | also measured
NC1=C(C(=O)c2ccccc2)/C(=N/c2ccccc2C(=O)c2ccccc2)C=CC1=O |  |  | Drug uptake [1]: Metabolite_Detected; Drug uptake [2]: Metabolite_Detected
Cc1cc2ncnn2cc1Nc1ncc2c(n1)n([C@H]1CC[C@H](O)CC1)c(=O)n2C | 1.3 | 0.4 | 
Cc1cc2ncnn2cc1Nc1ncc2c(n1)n(C1CCC(F)(F)CC1)c(=O)n2C | 2 | 23 | microsomal CLint [5]: 68 µL/min/mg
COc1ccc(Nc2ncc3c(n2)n(-c2ccccc2)c(=O)n3C)c(C)c1 | 2.8 |  | 
Cn1c(=O)n([C@H]2CC[C@H](O)CC2)c2nc(Nc3ccccc3)ncc21 | 2.4 |  | 
COc1ccc(Nc2ncc3[nH]c(=O)n([C@H]4CC[C@H](O)CC4)c3n2)c(C)c1 | 2.3 |  | 
Cc1cc2nccn2cc1Nc1ncc2c(n1)n(C1CCOCC1)c(=O)n2C |  | 11 | pKa [6]: 7.1
Cc1cc2ncnn2cc1Nc1ncc2c(n1)n([C@H]1CC[C@@](C)(O)CC1)c(=O)n2C | 1.9 | 24 | pKa [6]: 3.6
Cc1c(Nc2ncc3c(n2)n([C@H]2CC[C@H](O)CC2)c(=O)n3C)ccc2nccn12 | 1.2 |  | 
Cn1c(=O)n([C@H]2CC[C@H](O)CC2)c2nc(Nc3ccc4nccn4c3)ncc21 | 1.8 |  | 
Cc1cc2nccn2cc1Nc1ncc2c(n1)n([C@H]1CC[C@H](O)CC1)c(=O)n2C | 1.4 | 0.4 | 
Cc1cc2ncnn2cc1Nc1ncc2c(n1)n([C@H]1CC[C@](C)(O)CC1)c(=O)n2C | 1.1 | 0.7 | 
Cn1c(=O)n([C@H]2CC[C@H](O)CC2)c2nc(Nc3ccc4ncnn4c3)ncc21 | 1.7 |  | 
Cc1cc2ncnn2cc1Nc1ncc2c(n1)n(C1CCOCC1)c(=O)n2C [AZD-7648] | 1.3 | 22 | Vd [12]: 1.4 L/kg; Vd [13]: 0.7 L/kg; solubility thermodynamic [14]: > 10000 µM; Time [15]: > 12 h; solubility thermodynamic [16]: 180 µM (≈ 68.5 µg/mL); bioavailability [17]: 93%; pKa [6]: 3.4; bioavailability [18]: 104%; Cmax [19]: 17 µM; Cp(f) [20]: > 1 µM

More lines, main results first:

logD [3] | Papp A→B [4] [×10⁻⁶ cm/s] | SMILES | also measured
4.1 |  | COc1ccc(Nc2ncc3c(n2)n(C2CCCCC2)c(=O)n3C)c(C)c1 | 
2.5 |  | Cc1ccccc1Nc1ncc2c(n1)n([C@H]1CC[C@H](O)CC1)c(=O)n2C | 
2.3 |  | COc1ccc(Nc2ncc3c(n2)n([C@H]2CC[C@H](O)CC2)c(=O)n3C)cc1 | 
2.6 |  | COc1ccc(C)c(Nc2ncc3c(n2)n([C@H]2CC[C@H](O)CC2)c(=O)n3C)c1 | 
3.7 |  | COc1ccc(Nc2ncc3c(n2)n(C2CCCC2)c(=O)n3C)c(C)c1 | 
2.3 |  | COc1ccc(Nc2ncc3c(n2)n([C@H]2CC[C@H](O)CC2)c(=O)n3C)c(C)c1 | Drug metabolism [7]: Metabolite_Detected; Drug metabolism [8]: Metabolite_Detected; microsomal CLint [5]: 49 µL/min/mg; Drug metabolism [9]: Metabolite_Detected; Drug metabolism [10]: Metabolite_Detected; Drug metabolism [11]: Metabolite_Detected
3.1 | 24 | Cc1cc2ncnn2cc1Nc1ncc2c(n1)n(C1CCCCC1)c(=O)n2C | microsomal CLint [5]: 93 µL/min/mg
